In patent US12227520B2 (priority 2019, dated 2025) one finds EC50 and CC50 data, which are given here for 23 compounds.

The EC50 is the concentration needed to bring the measured effect to its halfway point. As a reminder, the CC50 is the concentration at which the toxic effect on the cells reaches its halfway point.

Like-named read-outs stand apart in the source and are kept apart here. Where only a bound is given, the exact number is not on record here.

The subject of one data set is HIV-1 (IIIB). The experiment in a line: Antiviral assay in MT-4 cells (HIV MT-4 antiviral assay). To be noted: HIV-1 (IIIB) in MT-4 cells, 5 days incubation. The data set is classed as cell-based. How it is done: Compounds were tested in a high-throughput 384-well assay format for their ability to inhibit the replication of HIV-1 (IIIB) in MT-4 cells. Compounds were serially diluted (1:3) in DMSO on 384-well polypropylene plates and further diluted 200-fold into complete RPMI media (10% FBS, 1% P/S) using the Biotek Micro Flow and Labcyte ECHO acoustic dispenser. Each plate contained up to 8 test compounds, with negative (No Drug Control) and 5 μM AZT positive controls. MT-4 cells were pre-infected with 10 μL of either RPMI (mock-infected) or a fresh 1:250 dilution of HIV-1 IIIB concentrated virus stock. Infected and uninfected MT-4 cells were further diluted in complete RPMI media and added to each plate using a Micro Flow dispenser. After 5 days incubation in a humidified and temperature controlled incubator (37° C.), Cell Titer Glo (Promega) was added to the assay plates and chemiluminescence read using an Envision plate-reader.

Data set [1] is described as follows: Cytotoxicity assay in MT-4 cells. The data set is classed as cell-based, human. To be noted: human, uninfected MT-4 cells, 5 days incubation; read-out: CC50. As to the method:
Each plate contained up to 8 test compounds, with negative (No Drug Control) and 5 μM AZT positive controls. MT-4 cells were pre-infected with 10 μL of either RPMI (mock-infected) or a fresh 1:250 dilution of HIV-1 IIIB concentrated virus stock. Infected and uninfected MT-4 cells were further diluted in complete RPMI media and added to each plate using a Micro Flow dispenser. After 5 days incubation in a humidified and temperature controlled incubator (37° C.), Cell Titer Glo (Promega) was added to the assay plates and chemiluminescence read using an Envision plate-reader. […] Assays were performed as above except uninfected MT-4 cells were added to each well containing test compound. In addition, 10 μM puromycin was added to the last column of each assay plate to assess a base level of cytotoxicity.

[2] abbreviates: Human immunodeficiency virus 1, IIIB, MT4, 120 h, read-out: EC50.

`COC1CCCN2C[C@@H]1n1cc(C(=O)NCc3c(F)cc(F)cc3F)c(=O)c(O)c1C2=O` (stereo partly drawn) [Example 99-1, (7S)-12-hydroxy-6-methoxy-1,11-dioxo-N-(2,4,6-trifluorobenzyl)-1,4,5,6,7,11-hexahydro-3H-2,7-methanopyrido[1,2-a][1,4]diazonine-10-carboxamide]: the EC50 in the data set with HIV-1 (IIIB) (setting [2]) came out at 1.53 nM. Besides, the cytotoxic concentration (CC50) at 5 days in data set [1] is over 22200 nM.
For the compound `O=C(NCc1ccc(F)cc1F)c1cn2c(c(O)c1=O)C(=O)N1C[C@@H]2CCc2cc(Cl)ccc21` [Example 49-1, (12S)-2-chloro-N-(2,4-difluorobenzyl)-7-hydroxy-6,8-dioxo-6,8,13,14-tetrahydro-12H-5,12-methanobenzo[e]pyrido[1,2-a][1,4]diazonine-9-carboxamide], the 50% effective concentration (EC50) with HIV-1 (IIIB) (setting [2]) turned out to be 36.5 nM. Also, the 50% cytotoxic concentration (CC50) at 5 days in data set [1] is over 15700 nM.
Consider `C[C@]1(F)CC[C@H]2CN(C1)C(=O)c1c(O)c(=O)c(C(=O)NCc3c(F)cc(F)cc3F)cn12` [Example 132-2, (4S,7S)-4-fluoro-12-hydroxy-4-methyl-1,11-dioxo-N-(2,4,6-trifluorobenzyl)-1,4,5,6,7,11-hexahydro-3H-2,7-methanopyrido[1,2-a][1,4]diazonine-10-carboxamide], for which the EC50 with HIV-1 (IIIB) (setting [2]) was 2.78 nM. For the same compound, in data set [1], the cytotoxic concentration (CC50) at 5 days came out at 25700 nM.
Turning to `O=C(NCc1c(F)cc(F)cc1F)c1cn2c(c(O)c1=O)C(=O)N1CCc3cc(Cl)ccc3[C@H]2C1` [Example 136-1, (13S)-10-chloro-4-hydroxy-3,5-dioxo-N-(2,4,6-trifluorobenzyl)-3,5,8,13-tetrahydro-7H-6,13-methanobenzo[g]pyrido[1,2-a][1,4]diazonine-2-carboxamide], in the data set on HIV-1 (IIIB) (setting [2]), the EC50 worked out at 39.9 nM. Further, the CC50 at 5 days in data set [1] was 12400 nM.
On to `O=C(NCc1ccc(F)c(Cl)c1F)c1cn2c(c(O)c1=O)C(=O)N1C[C@H]2CCCc2ccccc21` [Example 97-2, (6R)—N-(3-chloro-2,4-difluorobenzyl)-1-hydroxy-2,15-dioxo-2,6,7,8,9,15-hexahydro-6,14-methanobenzo[e]pyrido[1,2-a][1,4]diazecine-3-carboxamide], for which the EC50 in the data set on HIV-1 (IIIB) (setting [2]) came to 6.05 nM. Moreover, the CC50 at 5 days in data set [1] was 16300 nM.
Turning to `O=C(NCc1ccc(F)cc1Cl)c1cn2c(c(O)c1=O)C(=O)N1CCCC[C@H]2C1` [Example 152, (7S)—N-(2-chloro-4-fluoro-benzyl)-12-hydroxy-1,11-dioxo-1,4,5,6,7,11-hexahydro-3H-2,7-methanopyrido[1,2-a][1,4]diazonine-10-carboxamide], the concentration for a half-maximal effect (EC50) with HIV-1 (IIIB) (setting [2]) is 4.05 nM. Moreover, in data set [1], the half-maximal cytotoxic concentration (CC50) at 5 days is 12000 nM.
`O=C(NCc1ccc(F)cc1F)c1cn2c(c(O)c1=O)C(=O)N1CC2CCc2cc(F)ccc21` (single isomer, unassigned) [Example 55-1]: the EC50 with HIV-1 (IIIB) was over 89.4 nM. The 50% cytotoxic concentration (CC50) at 5 days in data set [1] was 13000 nM.
Turning to `C[C@@]1(F)CC[C@H]2CN(C1)C(=O)c1c(O)c(=O)c(C(=O)NCc3c(F)cc(F)cc3F)cn12` [Example 132-1, (4R,7S)-4-fluoro-12-hydroxy-4-methyl-1,11-dioxo-N-(2,4,6-trifluorobenzyl)-1,4,5,6,7,11-hexahydro-3H-2,7-methanopyrido[1,2-a][1,4]diazonine-10-carboxamide], the half-maximal effective concentration (EC50) in the data set on HIV-1 (IIIB) (setting [2]) is 8.83 nM. In addition, the cytotoxic concentration (CC50) at 5 days in data set [1] is over 50000 nM.
Turning to `O=C(NCc1c(F)cc(F)cc1F)c1cn2c(c(O)c1=O)C(=O)N1Cc3ccc(Cl)cc3C[C@@H]2C1` (single isomer, unassigned) [Example 127-2], the EC50 with HIV-1 (IIIB) (setting [2]) is 3.93 nM. Also, the half-maximal cytotoxic concentration (CC50) at 5 days in data set [1] worked out at 13700 nM.
For `O=C(NCc1ccc(F)cc1F)c1cn2c(c(O)c1=O)C(=O)N1C[C@H]2CCC(F)(F)C1` [Example 4-1, (7R)—N-(2,4-difluorobenzyl)-4,4-difluoro-12-hydroxy-1,11-dioxo-1,4,5,6,7,11-hexahydro-3H-2,7-methanopyrido[1,2-a][1,4]diazonine-10-carboxamide], in the data set with HIV-1 (IIIB) (setting [2]), the 50% effective concentration (EC50) turned out to be 6.4 nM. In addition, in data set [1], the CC50 at 5 days was 23300 nM.
Consider `CC(=O)N1CCN2CC(C1)n1cc(C(=O)NCc3ccc(F)cc3F)c(=O)c(O)c1C2=O` (stereo not shown) [Example 31, 5-acetyl-N-(2,4-difluorobenzyl)-12-hydroxy-1,11-dioxo-1,4,5,6,7,11-hexahydro-3H-2,7-methanopyrido[1,2-a][1,4,7]triazonine-10-carboxamide], for which, in the data set with HIV-1 (IIIB) (setting [2]), the 50% effective concentration (EC50) is over 100 nM. Besides, the CC50 at 5 days in data set [1] was over 50000 nM.
As to `C[C@]1(O)CCN2C[C@H](C1)n1cc(C(=O)NCc3c(F)cc(F)cc3F)c(=O)c(O)c1C2=O` [Example 107-1, (5S,7S)-5,12-dihydroxy-5-methyl-1,11-dioxo-N-(2,4,6-trifluorobenzyl)-1,4,5,6,7,11-hexahydro-3H-2,7-methanopyrido[1,2-a][1,4]diazonine-10-carboxamide], the EC50 with HIV-1 (IIIB) (setting [2]) stood at 15.1 nM. The 50% cytotoxic concentration (CC50) at 5 days in data set [1] is over 50000 nM.
In the case of `C[C@@]1(F)CCN2C[C@H](C1)n1cc(C(=O)NCc3c(F)cc(F)cc3F)c(=O)c(O)c1C2=O` [Example 115-2, (5R,7S)-5-fluoro-12-hydroxy-5-methyl-1,11-dioxo-N-(2,4,6-trifluorobenzyl)-1,4,5,6,7,11-hexahydro-3H-2,7-methanopyrido[1,2-a][1,4]diazonine-10-carboxamide], the EC50 in the data set with HIV-1 (IIIB) (setting [2]) worked out at 2.58 nM. Moreover, in data set [1], the half-maximal cytotoxic concentration (CC50) at 5 days came to 28100 nM.
In the case of `Cn1ncc2c1CC[C@H]1CN2C(=O)c2c(O)c(=O)c(C(=O)NCc3c(F)cc(F)cc3F)cn21` [Example 85-2, (11S)-6-hydroxy-1-methyl-5,7-dioxo-N-(2,4,6-trifluorobenzyl)-1,5,7,11,12,13-hexahydro-4,11-methanopyrazolo[4,3-e]pyrido[1,2-a][1,4]diazonine-8-carboxamide], the EC50 with HIV-1 (IIIB) (setting [2]) amounted to 5.85 nM. Further, the cytotoxic concentration (CC50) at 5 days in data set [1] is over 49300 nM.
Turning to `O=C(NCc1ccc(F)c(Cl)c1F)c1cn2c(c(O)c1=O)C(=O)N1C[C@@H]2CCCc2ccccc21` [Example 97-1, (6S)—N-(3-chloro-2,4-difluorobenzyl)-1-hydroxy-2,15-dioxo-2,6,7,8,9,15-hexahydro-6,14-methanobenzo[e]pyrido[1,2-a][1,4]diazecine-3-carboxamide], the concentration for a half-maximal effect (EC50) in the data set with HIV-1 (IIIB) (setting [2]) was 2.85 nM. Further, in data set [1], the CC50 at 5 days was 6060 nM.
Take `O=C(NCc1ccc(F)cc1F)c1cn2c(c(O)c1=O)C(=O)N1C[C@@H]2COc2cc(F)c(F)cc21` [Example 92-1, (6R)—N-(2,4-difluorobenzyl)-10,11-difluoro-1-hydroxy-2,14-dioxo-2,6,7,14-tetrahydro-6,13-methanobenzo[b]pyrido[2,1-f][1,4,7]oxadiazonine-3-carboxamide]: in the data set with HIV-1 (IIIB) (setting [2]), the concentration for a half-maximal effect (EC50) amounted to 535 nM. For the same compound, in data set [1], the CC50 at 5 days is over 50000 nM.
The compound `O=C(NCc1cccc(Cl)c1F)c1cn2c(c(O)c1=O)C(=O)N1CCCC[C@H]2C1` [Example 126, (7S)—N-(3-chloro-2-fluorobenzyl)-12-hydroxy-1,11-dioxo-1,4,5,6,7,11-hexahydro-3H-2,7-methanopyrido[1,2-a][1,4]diazonine-10-carboxamide] yielded an EC50 in the data set with HIV-1 (IIIB) (Human immunodeficiency virus 1, IIIB, MT4, 120 h) of 4.75 nM. Besides, the CC50 at 5 days in data set [1] was determined as 15400 nM.
Take `CC1=CC[C@H]2CN(C1)C(=O)c1c(O)c(=O)c(C(=O)NCc3c(F)cc(F)cc3F)cn12` [Example 132-3, (7S)-12-hydroxy-4-methyl-1,11-dioxo-N-(2,4,6-trifluorobenzyl)-1,6,7,11-tetrahydro-3H-2,7-methanopyrido[1,2-a][1,4]diazonine-10-carboxamide]: the EC50 in the data set with HIV-1 (IIIB) (setting [2]) amounted to 2.14 nM. In addition, the CC50 at 5 days in data set [1] is 24100 nM.
Turning to `O=C(NCc1ccc(F)cc1F)c1cn2c(c(O)c1=O)C(=O)N1C[C@H]2CCc2ccccc21` (single isomer, unassigned) [Example 37-1], in the data set on HIV-1 (IIIB) (setting [2]), the EC50 is 21.4 nM. Besides, the CC50 at 5 days in data set [1] was 10500 nM.
On the same counts, the results for `O=C(NCc1ccc(Cl)cc1Cl)c1cn2c(c(O)c1=O)C(=O)N1CCCC[C@H]2C1` [Example 153, (7S)—N-(2,4-dichlorobenzyl)-12-hydroxy-1,11-dioxo-1,4,5,6,7,11-hexahydro-3H-2,7-methanopyrido[1,2-a][1,4]diazonine-10-carboxamide] are 29.8 nM and 5610 nM.
For the compound `O=C(NCc1ccc(F)cc1F)c1cn2c(c(O)c1=O)C(=O)N1CCOC[C@H]2C1` [Example 29, (7R)—N-(2,4-difluorobenzyl)-12-hydroxy-1,11-dioxo-1,3,4,6,7,11-hexahydro-2,7-methanopyrido[1,2-d][1,4,7]oxadiazonine-10-carboxamide], the concentration giving a half-maximal response (EC50) in the data set with HIV-1 (IIIB) (setting [2]) was determined as 7 nM. In data set [1], the CC50 at 5 days was over 50000 nM.
As for `CCC1(F)CCCN2CC1n1cc(C(=O)NCc3ccc(F)cc3F)c(=O)c(O)c1C2=O` (stereo not shown) [Example 105, N-(2,4-difluorobenzyl)-6-ethyl-6-fluoro-12-hydroxy-1,11-dioxo-1,4,5,6,7,11-hexahydro-3H-2,7-methanopyrido[1,2-a][1,4]diazonine-10-carboxamide], the concentration for a half-maximal effect (EC50) in the data set with HIV-1 (IIIB) (setting [2]) is 1.9 nM. Besides, the 50% cytotoxic concentration (CC50) at 5 days in data set [1] is 22300 nM.
Consider `O=C(NCc1ccc(F)cc1F)c1cn2c(c(O)c1=O)C(=O)N1Cc3ccc(Cl)cc3C[C@@H]2C1` (single isomer, unassigned) [Example 128-2], for which the EC50 in the data set on HIV-1 (IIIB) (setting [2]) worked out at 7.37 nM. For the same compound, in data set [1], the half-maximal cytotoxic concentration (CC50) at 5 days is over 50000 nM.
